Test system: TPM3-NTRK1-wt IC50 / primary target (e.g. CD74-ROS1-wt) IC50, Ba/F3 cells
Test: Cell assay TRKA selectivity (TRKA potency divided by primary target potency)
Format: cell-based
Settings: for TPM3-NTRK1-wt/CD74-ROS1-G2032R: TRKA selectivity ratio: TPM3-NTRK1-wt IC50 / CD74-ROS1-G2032R IC50, Ba/F3 cells; for TPM3-NTRK1-wt/CD74-ROS1-wt: TRKA selectivity ratio: TPM3-NTRK1-wt IC50 / CD74-ROS1-wt IC50, Ba/F3 cells; for TPM3-NTRK1-wt/EML4-ALK-L1196M-G1202R: TRKA selectivity ratio: TPM3-NTRK1-wt IC50 / EML4-ALK-L1196M-G1202R IC50, Ba/F3 cells; for TPM3-NTRK1-wt/EML4-ALK-wt: TRKA selectivity ratio: TPM3-NTRK1-wt IC50 / EML4-ALK-wt IC50, Ba/F3 cells
Source text: Genes encoding CD74-ROS1 wild-type (wt), CD74-ROS1 G2032R, CD74-ROS1 S1986F, CD74-ROS1 L2026M, CD74-ROS1 D2033N, EML4-ALK wt (variant 1), EML4-ALK G1202R (variant 1), EML4-ALK L1196M/G1202R (variant 1), EML4-ALK G1202R/G1269A (variant 1), EML4-ALK G1202R/L1198F (variant 1), and TPM3-TRKA were synthesized at GeneRay, cloned into the retroviral construct pMSCV-puro (Biovector), and packaged into retroviral particles. The virus was used to infect Ba/F3 cells (RIKEN) at multiplicity of infection=1 for 1 day. Infected cells were rescued in media (RPMI-1640 with 10% fetal bovine serum and 1% streptomycin and penicillin) supplemented with mouse IL-3 (10 ng/mL) for 2 days, and stable cell lines were selected by IL-3 withdrawal and puromycin (0.8 μg/mL) for 7 days. Monoclones were selected by single-cell dilution in IL-3-free medium containing puromycin (0.8 μg/mL). Transformation of desired genes was confirmed by Sanger sequencing and western blot using the following antibodies: ROS1 (CST #3287), ALK (CST #3633), and pan-TRK (Abcam #76291).
Stable cells were plated at 1,000 cells/well (40 μL) in a 384-well plate for 1 day. Test compounds (40 nL) were then added in a 3-fold dilution series using the TECAN EVO200 liquid handler and incubated for 72 hours. Plates were equilibrated at room temperature for 15 minutes followed by addition of 40 μL CellTiter-Glo reagent (Promega). Luminescence was measured on a plate reader. Half-maximal inhibitory concentration (IC50) was calculated from percent inhibition and inhibitor concentration using four-parameter logistic regression. […] Exemplary data is given in Table 4 (nd is not determined).
TRKA selectivity was calculated by dividing a compound's TRKA potency by its primary target potency (e.g. TPM3-NTRK1-wt IC50/CD74-ROS1-wt IC50). Compound selectivity can be interpreted by binning ratio values: bin A for very high selectivity, ratio>30-fold; bin B for high selectivity, ratio>10-fold; bin C for moderate selectivity, ratio≥1; and bin D for low selectivity, ratio<1. […] (nd=not determined).

Structure (SMILES)	TPM3-NTRK1-wt/CD74-ROS1-G2032R	TPM3-NTRK1-wt/CD74-ROS1-wt	TPM3-NTRK1-wt/EML4-ALK-L1196M-G1202R	TPM3-NTRK1-wt/EML4-ALK-wt
CCn1ncc2c1-c1cnc(N)c(n1)OC(C)c1cc(F)ccc1-c1nccn1C2 (stereo not shown) [Example 163, 3-ethyl-16-fluoro-19-methyl-20-oxa-3,4,8,11,23,25-hexaazapentacyclo[19.3.1.0^2,^6.0^8,^12.0^13,^18]pentacosa-1(24),2(6),4,9,11,13,15,17,21(25),22-decaen-22-amine]	A (bin A for very high selectivity, ratio>30-fold)	A (bin A for very high selectivity, ratio>30-fold)	C (bin C for moderate selectivity, ratio≥1)	A (bin A for very high selectivity, ratio>30-fold)
CCn1nc(Cl)c2c1-c1cnc(N)c(c1)O[C@H](C)c1cc(F)cnc1-c1nn(C)cc1C2 [Example 142, (19R)-5-chloro-3-ethyl-16-fluoro-10,19-dimethyl-20-oxa-3,4,10,11,14,23-hexaazapentacyclo[19.3.1.0^2,^6.0^8,^12.0^13,^18]pentacosa-1(24),2(6),4,8,11,13,15,17,21(25),22-decaen-22-amine]	A (bin A for very high selectivity, ratio>30-fold)		B (bin B for high selectivity, ratio>10-fold)	
CCc1nsc2c1-c1cnc(N)c(c1)O[C@H](C)c1cc(F)ccc1-c1nn(C)cc1C2 [Example 155, (19R)-3-ethyl-16-fluoro-10,19-dimethyl-20-oxa-5-thia-4,10,11,23-tetraazapentacyclo[19.3.1.0^2,^6.0^8,^12.0^13,^18]pentacosa-1(24),2(6),3,8,11,13,15,17,21(25),22-decaen-22-amine]	C (bin C for moderate selectivity, ratio≥1)	A (bin A for very high selectivity, ratio>30-fold)	D (bin D for low selectivity, ratio<1)	A (bin A for very high selectivity, ratio>30-fold)
C[C@H]1Oc2cc(cnc2N)-c2c(nn(C)c2C#N)Cc2cn(C)nc2-c2ccc(F)cc21 [Example 111, (19R)-22-amino-16-fluoro-4,10,19-trimethyl-20-oxa-4,5,10,11,23-pentaazapentacyclo[19.3.1.0^2,^6.0^8,^12.0^13,^18]pentacosa-1(24),2,5,8,11,13,15,17,21(25),22-decaene-3-carbonitrile]	B (bin B for high selectivity, ratio>10-fold)	A (bin A for very high selectivity, ratio>30-fold)	C (bin C for moderate selectivity, ratio≥1)	A (bin A for very high selectivity, ratio>30-fold)
CCn1ncc2c1-c1cnc(N)c(c1)O[C@H](C)c1cc(F)ccc1-c1nc(C)oc1C2 [Example 131, (19R)-3-ethyl-16-fluoro-10,19-dimethyl-9,20-dioxa-3,4,11,23-tetraazapentacyclo[19.3.1.0^2,^6.0^8,^12.0^13,^18]pentacosa-1(24),2(6),4,8(12),10,13,15,17,21(25),22-decaen-22-amine]	B (bin B for high selectivity, ratio>10-fold)	A (bin A for very high selectivity, ratio>30-fold)	C (bin C for moderate selectivity, ratio≥1)	B (bin B for high selectivity, ratio>10-fold)
Cc1cc2n(n1)-c1ccc(F)cc1[C@@H](C)Oc1cc(cnc1N)-c1c(C#N)ncn1C2 [Example 61, (19R)-22-amino-16-fluoro-10,19-dimethyl-20-oxa-4,6,11,12,23-pentaazapentacyclo[19.3.1.0^2,^6.0^8,^12.0^13,^18]pentacosa-1(24),2,4,8,10,13,15,17,21(25),22-decaene-3-carbonitrile]	A (bin A for very high selectivity, ratio>30-fold)	A (bin A for very high selectivity, ratio>30-fold)	B (bin B for high selectivity, ratio>10-fold)	A (bin A for very high selectivity, ratio>30-fold)
CCn1ncc2c1-c1cnc(N)c(c1)O[C@H](C)c1cc(F)ccc1-c1nn(C)c(Cl)c1C2 [Example 28, (19R)-9-chloro-3-ethyl-16-fluoro-10,19-dimethyl-20-oxa-3,4,10,11,23-pentaazapentacyclo[19.3.1.0^2,^6.0^8,^12.0^13,^18]pentacosa-1(24),2(6),4,8,11,13,15,17,21(25),22-decaen-22-amine]	A (bin A for very high selectivity, ratio>30-fold)	A (bin A for very high selectivity, ratio>30-fold)	C (bin C for moderate selectivity, ratio≥1)	A (bin A for very high selectivity, ratio>30-fold)
CCn1ncc2c1-c1cnc(N)c(c1)O[C@H](C)c1cc(F)ccc1-c1nn(C)c(C)c1C2 [Example 87, (19R)-3-ethyl-16-fluoro-9,10,19-trimethyl-20-oxa-3,4,10,11,23-pentaazapentacyclo[19.3.1.0^2,^6.0^8,^12.0^13,^18]pentacosa-1(24),2(6),4,8,11,13,15,17,21(25),22-decaen-22-amine]	A (bin A for very high selectivity, ratio>30-fold)	A (bin A for very high selectivity, ratio>30-fold)	C (bin C for moderate selectivity, ratio≥1)	A (bin A for very high selectivity, ratio>30-fold)
CCn1nc(Cl)c2c1-c1cnc(N)c(c1)O[C@H](C)c1cc(F)ccc1-n1nc(C)cc1C2 [Example 76, (19R)-5-chloro-3-ethyl-16-fluoro-10,19-dimethyl-20-oxa-3,4,11,12,23-pentaazapentacyclo[19.3.1.0^2,^6.0^8,^12.0^13,^18]pentacosa-1(24),2(6),4,8,10,13,15,17,21(25),22-decaen-22-amine]	A (bin A for very high selectivity, ratio>30-fold)	A (bin A for very high selectivity, ratio>30-fold)	B (bin B for high selectivity, ratio>10-fold)	A (bin A for very high selectivity, ratio>30-fold)
CC(C)Cn1ncc2c1-c1cnc(N)c(c1)O[C@H](C)c1cc(F)ccc1-c1nn(C)cc1C2 [Example 154, (19R)-16-fluoro-10,19-dimethyl-3-(2-methylpropyl)-20-oxa-3,4,10,11,23-pentaazapentacyclo[19.3.1.0^2,^6.0^8,^12.0^13,^18]pentacosa-1(24),2(6),4,8,11,13,15,17,21(25),22-decaen-22-amine]	A (bin A for very high selectivity, ratio>30-fold)	A (bin A for very high selectivity, ratio>30-fold)	B (bin B for high selectivity, ratio>10-fold)	A (bin A for very high selectivity, ratio>30-fold)
CCn1nc(OC)c2c1-c1cnc(N)c(c1)O[C@H](C)c1cc(F)ccc1-n1nc(C(F)F)cc1C2 [Example 147, (19R)-10-(difluoromethyl)-3-ethyl-16-fluoro-5-methoxy-19-methyl-20-oxa-3,4,11,12,23-pentaazapentacyclo[19.3.1.0^2,^6.0^8,^12.0^13,^18]pentacosa-1(24),2(6),4,8,10,13,15,17,21(25),22-decaen-22-amine]	A (bin A for very high selectivity, ratio>30-fold)	A (bin A for very high selectivity, ratio>30-fold)	C (bin C for moderate selectivity, ratio≥1)	A (bin A for very high selectivity, ratio>30-fold)
CCn1ncc2c1-c1cnc(N)c(c1)O[C@H](C)c1cc(F)ccc1-c1nn(C)cc1C2 [Example 1, (19R)-3-ethyl-16-fluoro-10,19-dimethyl-20-oxa-3,4,10,11,23-pentaazapentacyclo[19.3.1.0^2,^60^8,^12.0^13,^18]pentacosa-1(24),2(6),4,8,11,13,15,17,21(25),22-decaen-22-amine]	A (bin A for very high selectivity, ratio>30-fold)	A (bin A for very high selectivity, ratio>30-fold)	A (bin A for very high selectivity, ratio>30-fold)	A (bin A for very high selectivity, ratio>30-fold)
